Each structure is given as a SMILES string.

As a reminder, the melting point is the temperature of the solid-liquid transition. In general, inhibition in vivo refers to the drop in the measured response relative to a control, in per cent.

Test system in one data set: not given
Assay: not given
Conditions: not given
`CCc1cccc(C)c1CNc1cc(C(=O)N2CCOCC2)cc2c1nc(C)n2C` [Example 41, 4-(2-Ethyl-6-methyl-benzylamino)-1,2-dimethyl-6-(morpholinocarbonyl)-1H-benzimidazole] registered a melting point of 229 to 231 °C.

Take `CCc1cccc(C)c1CNc1cc(C(=O)N(C)C)cc2c1ncn2C.Cl` [Example 45, 6-(N,N-Dimethylaminocarbonyl)-4-(2-ethyl-6-methyl-benzylamino)-1-methyl-1H-benzimidazole Hydrochloride]: the melting point is 183 to 184 °C.

As for `CCc1cccc(C)c1CNc1cc(C(N)=O)cc2c1nc(C)n2C` [Example 38, 4-(2-Ethyl-6-methyl-benzylamino)-1,2-dimethyl-1H-benzimidazole-6-carboxamide], the melting point was 240 to 241 °C.

The compound `CCc1cccc(C)c1CNc1cc(C(=O)O)cc2c1nc(COC)n2C` [Example 33, 4-(2-Ethyl-6-methyl-benzylamino)-2-methoxymethyl-1-methyl-1H-benzimidazole-6-carboxylic Acid] came in with a melting point of 275 to 278 °C.

With `CCc1cccc(C)c1CNc1cc(C(=O)N(C)C)cc2c1nc(C)n2COCc1ccccc1.O=C(O)C(=O)O` [Example 48, 1-Benzyloxymethyl-6-(N,N-dimethylaminocarbonyl)-4-(2-ethyl-6-methyl-benzylamino)-2-methyl-1H-benzimidazole Oxalate], the melting point lay in the range of 168 to 169 °C.

Compound `Cc1cccc(C)c1CNc1cc(S(=O)(=O)N(C)C)cc2c1nc(C)n2C` [Example 63, 7-(2,6-Dimethyl-benzylamino)-2,3-dimethyl-3H-benzimidazole-5-sulfonic acid dimethylamide] displayed a melting point of 237 to 238 °C.

`CCc1cccc(C)c1COc1cc(C(=O)OC)cc2c1nc(C)n2C` [Example 1, Methyl 4-(2-ethyl-6-methyl-benzyloxy)-1,2-dimethyl-1H-benzimidazole-6-carboxylate] yielded a melting point of 157 °C.

Regarding `Cc1cccc(C)c1COc1cc(C(=O)N(C)C)cc2c1nc(C)n2C` [Example 9, 6-(N,N-Dimethylaminocarbonyl)-4-(2,6-dimethyl-benzyloxy)-1,2-dimethyl-1H-benzimidazole], the melting point is 180 °C.

`CCOC(=O)c1cc(OCc2ccccc2)c2nc(C)n(C)c2c1` [Example 52, Ethyl 4-benzyloxy-1,2-dimethyl-1H-benzimidazole-6-carboxylate] showed a melting point of 152 °C.

Take `Cc1cccc(C)c1CNc1cc(C(=O)O)cc2c1nc(C)n2C` [Example 32, 4-(2,6-Dimethyl-benzylamino)-1,2-dimethyl-1H-benzimidazole-6-carboxylic Acid]: the melting point lay within 315 to 318 °C.

The compound `CCOC(=O)c1cc(NCc2c(C)cccc2C)c2nc(COC)n(C)c2c1` [Example 30, Ethyl 4-(2,6-dimethyl-benzylamino)-2-methoxymethyl-1-methyl-1H-benzimidazole-6-carboxylate] yielded a melting point of 134 to 135 °C.

`COCc1nc2c(NCc3c(C)cccc3C)cc(C(=O)O)cc2n1C` [Example 34, 4-(2,6-Dimethyl-benzylamino)-2-methoxymethyl-1-methyl-1H-benzimidazole-6-carboxylic Acid] registered a melting point of 269 to 272 °C.

In the case of `Cc1ccc(C)c2c1C[C@@H](O)[C@@H]2Oc1cc(C(=O)N(C)C)cc2c1nc(C)n2C` (relative stereo) [Example 22, 4-(trans-2,3-Dihydro-2-hydroxy-4,7-dimethyl-1-indenyloxy)-6-(N,N-dimethylaminocarbonyl)-1,2-dimethyl-1H-benzimidazole], the melting point came out at 134 °C.

Turning to `COC(=O)Nc1cccc(C)c1CNc1cc(C(=O)N(C)C)cc2c1nc(C)n2C` [Example 50, 6-(N,N-Dimethylaminocarbonyl)-4-(2-methoxycarbonylamino-6-methyl-benzylamino)-1,2-dimethyl-1H-benzimidazole], the melting point was 193 to 195 °C.

Regarding `Cc1nc2c(OCc3ccccc3)cc(CO)cc2n1C` [Example 5, 4-Benzyloxy-6-hydroxymethyl-1,2-dimethyl-1H-benzimidazole], the melting point lay within 213 to 214 °C.

The compound `Cn1c(C2CC2)nc2c(O[C@@H]3c4ccccc4C[C@H]3O)cc(C(=O)O)cc21` (relative stereo) [Example 59, 2-Cyclopropyl-4-(trans-2,3-dihydro-2-hydroxy-1-indenyloxy)-1-methyl-1H-benzimidazole-6-carboxylic acid] returned a melting point of 132 to 134 °C.

Regarding `COn1c(C)nc2c(NCc3c(C)cccc3C)cc(C(=O)N(C)C)cc21` [Example 80, 6-(N,N-Dimethylamino-carbonyl)-4-(2,6-dimethyl-benzylamino)-1-methoxy-2-methyl-1H-benzimidazole], the melting point lay in the range of 128 to 129 °C.

`Cc1cccc(C)c1CNc1cc(C(=O)N(C)CCO)cc2c1nc(C)n2C` [Example 56, 4-(2,6-Dimethyl-benzylamino)-6-(N-2-hydroxyethyl-N-methylaminocarbonyl)-1,2-dimethyl-1H-benzimidazole] displayed a melting point of 177 to 178 °C.

In the case of `Cc1cccc(C)c1CNc1cc(C(=O)NCCO)cc2c1nc(C)n2C` [Example 36, 4-(2,6-Dimethyl-benzylamino)-6-(2-hydroxyethyl-aminocarbonyl)-1,2-dimethyl-1H-benzimidazole], the melting point was 259 to 260 °C.

In turn, `COn1c(C)nc2c(NCc3c(C)cccc3C)cc(Br)cc21` [Example 77, 6-Bromo-4-(2,6-dimethyl-benzylamino)-1-methoxy-2-methyl-1H-benzimidazole] showed a melting point of 171 to 172 °C.

`CNC(=O)c1cc(NCc2c(C)cccc2C)c2nc(C)[nH]c2c1` [Example 69, 4-(2,6-Dimethyl-benzylamino)-6-(N-methylaminocarbonyl)-2-methyl-1H-benzimidazole]: the melting point amounted to 298 °C.

As for `COCc1nc2c(NCc3c(C)cccc3C)cc(C(=O)NCCO)cc2n1C` [Example 37, 4-(2,6-Dimethyl-benzylamino)-6-(2-hydroxyethyl-aminocarbonyl)-2-methoxymethyl-1-methyl-1H-benzimidazole], the melting point was 186 to 187 °C.

On to `CC(=O)OCc1nc2c(NCc3c(C)cccc3C)cc(Br)cc2n1C` [Example 81, 2-Acetoxymethyl-6-bromo-4-(2,6-dimethyl-benzylamino)-1-methyl-1H-benzimidazole], for which the melting point lay within 188 to 190 °C.

In turn, `Cc1cccc(C)c1CNc1cc(C(=O)NN)cc2c1nc(C)n2C` [Example 57, 4-(2,6-Dimethyl-benzylamino)-1,2-dimethyl-1H-benzimidazole-6-carboxylic acid hydrazide] came in with a melting point of 277 to 278 °C.

The compound `Cc1nc2c(O[C@@H]3c4ccccc4C[C@H]3O)cc(C(=O)NC3CC3)cc2n1C` (relative stereo) [Example 26, 6-(Cyclopropylaminocarbonyl)-4-(trans-2,3-dihydro-2-hydroxy-1-indenyloxy)-1,2-dimethyl-1H-benzimidazole] registered a melting point of 148 to 149 °C.

`Cc1ccccc1CNc1cc(C(=O)N(C)C)cc2c1nc(C)n2C` [Example 61, 6-(N,N-Dimethylaminocarbonyl)-1,2-dimethyl-4-(2-methyl-benzylamino)-1H-benzimidazole]: the melting point was 158 to 159 °C.

In turn, `Cc1cccc(C)c1CNc1cc(C(=O)N(C)C)cc2c1nc(C)n2COCc1ccccc1` [Example 66, 1-Benzyloxymethyl-6-(N,N-dimethylaminocarbonyl)-4-(2,6-dimethyl-benzylamino)-2-methyl-1H-benzimidazole] registered a melting point of 55 to 56 °C.

In turn, `Cc1cccc(C)c1CNc1cc(C(=O)N2CC2)cc2c1nc(C)n2C` [Example 54, 6-(1-Aziridinylcarbonyl)-4-(2,6-dimethyl-benzylamino)-1,2-dimethyl-1H-benzimidazole] had a melting point of 201 to 202 °C.

Compound `Cc1nc2c(OCc3ccccc3)cc(C(=O)N(C)C)cc2n1C` [Example 7, 4-Benzyloxy-6-(N,N-dimethylaminocarbonyl)-1,2-dimethyl-1H-benzimidazole] had a melting point of 159 to 160 °C.

In the case of `Cc1cccc(C)c1CNc1cc(C2=NCCN2)cc2c1nc(C)n2C` [Example 72, 6-(4,5-Dihydro-1H-imidazol-2-yl)-4-(2,6-dimethyl-benzylamino)-1,2-dimethyl-1H-benzimidazole], the melting point fell in the range of 273 to 274 °C.

In turn, `CCOC(=O)c1cc(O[C@@H]2c3c(C)ccc(C)c3C[C@H]2O)c2nc(C)n(C)c2c1` (relative stereo) [Example 20, Ethyl 4-(trans-2,3-dihydro-2-hydroxy-4,7-dimethyl-1-indenyloxy)-1,2-dimethyl-1H-benzimidazole-6-carboxylate] returned a melting point of 184 °C.

Another data set concerns pentagastrin-stimulated acid secretion of the perfused rat stomach. Kind of data set: Secretion-inhibiting action on the perfused rat stomach (pentagastrin-stimulated acid secretion, intraduodenal administration in vivo). To be noted: dose 1 μmol/kg i.d., anesthetized female CD rat. The source says: Testing of the Secretion-Inhibiting Action on the Perfused Rat Stomach
In Table A which follows, the influence of the compounds according to the invention on the pentagastrin-stimulated acid secretion of the perfused rat stomach after intraduodenal administration in vivo is shown.
The abdomen of anesthetized rats (CD rat, female, 200-250 g; 1.5 g/kg i.m. urethane) was opened after tracheotomy by a median upper abdominal incision and a PVC catheter was fixed transorally in the esophagus and another via the pylorus such that the ends of the tubes just projected into the gastric lumen. The catheter leading form the pylorus led outward into the right abdominal wall through a side opening.
After thorough rinsing (about 50-100 ml), warm (37° C.) physiological NaCl solution was continuously passed through the stomach (0.5 ml/min, pH 6.8-6.9; Braun-Unita I). The pH (pH meter 632, glass electrode EA 147; φ=5 mm, Metrohm) and, by titration with a freshly prepared 0.01 N NaOH solution to pH 7 (Dosimat 665 Metrohm), the secreted HCl were determined in the effluent in each case collected at an interval of 15 minutes.
The gastric secretion was stimulated by continuous infusion of 1 μg/kg (=1.65 ml/h) of i.v. pentagastrin (left femoral vein) about 30 min after the end of the operation (i.e. after determination of 2 preliminary fractions). The substances to be tested were administered intraduodenally in a 2.5 ml/kg liquid volume 60 min after the start of the continuous pentagastrin infusion.
The body temperature of the animals was kept at a constant 37.8-38° C. by infrared irradiation and heat pads (automatic, stepless control by means of a rectal temperature sensor).
In the case of `COCC(=O)O[C@@H]1Cc2ccccc2[C@H]1Oc1cc(C(=O)N(C)C)cc2c1nc(C)n2C` (relative stereo) [Example 13], the “Inhibition of acid secretion (%)” value is over 50%.

As to `CCc1cccc(C)c1CNc1cc(C(=O)N(C)C)cc2c1nc(C)n2C` [Example 44], the “Inhibition of acid secretion (%)” value is listed as over 50%.

The same data set, now with this note: intraduodenal, dose 1 μmol/kg i.d., anesthetized female CD rat.
For `CCc1cccc(C)c1CNc1cc(C(=O)N2CCOCC2)cc2c1nc(C)n2C` [Example 41, 4-(2-Ethyl-6-methyl-benzylamino)-1,2-dimethyl-6-(morpholinocarbonyl)-1H-benzimidazole], the inhibition in vivo at 1 µmol/kg is over 50%.

In turn, `CCc1cccc(C)c1CNc1cc(C(=O)N(C)C)cc2c1ncn2C.Cl` [Example 45, 6-(N,N-Dimethylaminocarbonyl)-4-(2-ethyl-6-methyl-benzylamino)-1-methyl-1H-benzimidazole Hydrochloride] displayed an inhibition in vivo at 1 µmol/kg of over 50%.

As to `CCc1cccc(C)c1CNc1cc(C(N)=O)cc2c1nc(C)n2C` [Example 38, 4-(2-Ethyl-6-methyl-benzylamino)-1,2-dimethyl-1H-benzimidazole-6-carboxamide], the inhibition in vivo at 1 µmol/kg was over 50%.
